Source: patent publication US10576102B2, “KOC1-derived peptide and vaccine including same” (ONCOTHERAPY SCIENCE, INC., priority 2014, dated 2020)
“Also recorded” adds a separate entry of the source.

Key:
peptide-pulsed C1R-A33 [1] = assay: In vitro CTL induction, IFN-gamma ELISPOT assay (HLA-A*3303); assay type: cell-based, human; details: CTLs induced with peptide-pulsed DCs from HLA-A*3303-positive volunteers; day 21; vs peptide-pulsed C1R-A33, compared with unpulsed control
Method: C1R (C1R-A33) that stably expresses HLA-A*3303 was used as a stimulator cell. A cDNA encoding the open-reading frame of HLA-A*3303 was amplified by PCR and cloned into an expression vector. C1R cells were transfected with the expression vector, and then selected using G418 (Invitrogen) for two weeks. The G418-selected cells were seeded into wells containing G418-added culture medium in a 96-well plate, and further cultured for 30 days. The exogenous HLA-A*3303 expression in C1R cells was verified by flow cytometric analysis.
Monocyte-derived dendritic cells (DCs) were used as the antigen-presenting cell to induce a cytotoxic T lymphocyte (CTL) response against peptides presented on human leukocyte antigens (HLAs). As described in the other sections, DCs were generated in vitro (Nakahara S et al., Cancer Res 2003, 63(14): 4112-8). Specifically, peripheral-blood mononuclear cells isolated from healthy volunteers (HLA-A*3303-positive) with the Ficoll-Paque plus solution (Pharmacia) were separated by attaching to plastic tissue culture dishes (Becton Dickinson) and concentrated as a monocyte fraction. The monocyte-concentrated population was cultured in the presence of 1000 IU/ml granulocyte macrophage colony-stimulating factor (R&D System) and 1000 IU/ml interleukin(IL)-4 (R&D System) in an AIM-V medium (Invitrogen) containing 2% heat-inactivated autologous serum (AS). After seven days of culturing, the cytokine-induced DCs were pulsed with 20 micro-g/ml each of the synthesized peptides in an AIM-V medium at 37 degrees C. for three hours in the presence of 3 micro-g/ml beta 2-microglobulin. The generated cells appeared to express on their cell surface DC-associated molecules such as CD80, CD83, CD86 and HLA class II (data not shown). Next, these peptide-pulsed DCs were inactivated by X-ray irradiation (20 Gy), and mixed in a 1:20 ratio with autologous CD8^+ T cells obtained by positive selection using the CD8 Positive Isolation Kit (Dynal). These culture products were seeded in a 48-well plate (Corning). Each well was made to contain 1.5×10^4 peptide-pulsed DCs, 3×10^5 CD8^+ T cells and 10 ng/ml IL-7 (R&D System) in 0.5 ml of the AIM-V/2% AS medium. Three days later, these culture products were added with a final concentration of 20 IU/ml IL-2 (CHIRON). On day 7 and day 14, T cells were further stimulated with peptide-pulsed autologous DCs. The DCs were prepared every time by the same method as above. On day 21, after the third peptide stimulation, CTLs were examined against the peptide-pulsed C1R-A33 cell by a human interferon (IFN)-gamma enzyme-linked immunospot (ELISPOT) assay (Tanaka H et al., Br J Cancer 2001, 84(1): 94-9; Umano Y et. al., Br J Cancer 2001, 84(8): 1052-7; Uchida N et al., Clin Cancer Res 2004, 10(24): 8577-86; Suda T et al., Cancer Sci 2006, 97(5): 411-9; Watanabe T et al., Cancer Sci 2005, 96(8): 498-506).
(§1) Specifically, peptide-pulsed C1R-A33 (1×10^4 cells/well) was prepared as the stimulator cell. The induced CTLs, i.e., CTL lines and CTL clones, were used as the responder cell. The IFN-gamma ELISPOT assay and IFN-gamma ELISA were performed according to the manufacturer's manual.

[2] = system: COS7 cells transfected with both KOC1 and HLA-A*3303; assay: Specific CTL activity against target cells expressing KOC1 and HLA-A*3303; assay type: cell-based, African green monkey; details: for specific CTL activity of CTL clones against target cells expressing KOC1 and HLA-A*3303: COS7 transfected with both full-length KOC1 and HLA-A*3303; for specific CTL activity of CTL clones against control cells: COS7 transfected with either full-length KOC1 or HLA-A*3303
Method: as §1
A cDNA encoding the open-reading frame of a target gene or HLA-A*3303 was amplified by PCR. The PCR-amplified product was cloned into an expression vector. Either or both of the target gene-expressing vector and the HLA-A*3303-expressing vector were transfected into […], which is a cell line negative for the target gene and HLA, using Lipofectamine 2000 (Invitrogen) following the manufacturer's recommended protocol. Two days after transfection, the transfected cells were harvested using versene (Invitrogen), and used as the target cell for CTL activity assay (5×10^4 cells/well).
The CTL lines and CTL clones established against KOC1-A33-9-485 (SEQ ID NO: 64) (a), KOC1-A33-9-286 (SEQ ID NO: 67) (b), and KOC1-A33-10-542 (SEQ ID NO: 77) (c) were investigated for their ability to recognize target cells expressing KOC1 and the HLA-A*3303 molecule. COS7 cells transfected with both full-length KOC1 and the HLA-A*3303 gene (a specific model of target cells expressing KOC1 and the HLA-A*3303 gene) were prepared as the target cell. COS7 cells transfected with either full-length KOC1 or HLA-A*3303 were prepared as the control.

peptide-pulsed C1R-A33 [3] = assay: IFN-gamma ELISA of CTL lines and CTL clones (HLA-A*3303); assay type: cell-based, human; details: for IFN-gamma production of CTL clones, ELISA: CTL clones by limiting dilution, peptide-pulsed C1R-A33; for IFN-gamma production of CTL lines, ELISA: target cells pulsed with the peptide vs not pulsed, C1R-A33
Method: CTLs were propagated in culture using methods similar to those disclosed by Riddell et al. (Walter E A et al., N Engl J Med 1995, 333(16): 1038-44; Riddell S R et al., Nat Med 1996, 2(2): 216-23). The CTLs were co-cultured in a total of 25 ml AIM-V medium containing 5% AS (AIM-V/5% AS) and 40 ng/ml anti-CD3 antibody with two types of Mitomycin C-treated human B lymphoblastoid cell lines at 5×10^6 cells/flask. One day after beginning of the culturing, 120 IU/ml IL-2 was added to the culture. On days 5, 8 and 11, a fresh AIM-V/5% AS medium containing 30 IU/ml IL-2 was added to the culture (Tanaka H et al., Br J Cancer 2001, 84(1): 94-9; Umano Y et al., Br J Cancer 2001, 84(8): 1052-7; Uchida N et al., Clin Cancer Res 2004, 10(24): 8577-86; Suda T et al., Cancer Sci 2006, 97(5): 411-9; Watanabe T et al., Cancer Sci 2005, 96(8): 498-506).
Dilution of CTLs was carried out to make 0.3, 1 and 3 cells/well in 96 round-bottomed microtiter plates (Nalge Nunc International). The CTLs were co-cultured with two types of Mitomycin C-treated human B lymphoblastoid cell lines at 1×10^4 cells/well in a total of 150 micro-1/well AIM-V/5% AS medium with 30 ng/ml anti-CD3 antibody and 125 IU/ml IL-2. Ten days later, IL-2 was added to the medium at 50 micro-1/well to reach a final concentration of 125 IU/ml. On day 14, the CTL activity was tested, and the CTL clones were propagated using the same method as described above (Uchida N et al., Clin Cancer Res 2004, 10(24): 8577-86; Suda T et al., Cancer Sci 2006, 97(5): 411-9; Watanabe T et al., Cancer Sci 2005, 96(8): 498-506).
as §1

| Sequence | peptide-specific CTL activity (IFN-gamma production), ELISPOT (peptide-pulsed C1R-A33 [1]) | specific CTL activity of CTL clones against target cells expressing KOC1 and HLA-A*3303 ([2]; listed as KOC1-A33-9-485) | specific CTL activity of CTL clones against control cells ([2]; listed as KOC1-A33-9-485) | IFN-gamma production of CTL clones, ELISA (peptide-pulsed C1R-A33 [3]; listed as KOC1-A33-9-485) | IFN-gamma production of CTL lines, ELISA (peptide-pulsed C1R-A33 [3]) | specific CTL activity of CTL clones against target cells expressing KOC1 and HLA-A*3303 ([2]; listed as KOC1-A33-10-542) | specific CTL activity of CTL clones against control cells ([2]; listed as KOC1-A33-10-542) | IFN-gamma production of CTL clones, ELISA (peptide-pulsed C1R-A33 [3]; listed as KOC1-A33-10-542) | specific CTL activity of CTL clones against target cells expressing KOC1 and HLA-A*3303 ([2]; listed as KOC1-A33-9-286) | specific CTL activity of CTL clones against control cells ([2]; listed as KOC1-A33-9-286) | IFN-gamma production of CTL clones, ELISA (peptide-pulsed C1R-A33 [3]; listed as KOC1-A33-9-286) |
| --- | --- | --- | --- | --- | --- | --- | --- | --- | --- | --- | --- |
| EVKLEAHIR (a peptide derived from KOC1) [SEQ ID NO: 64] | potent IFN-gamma production | specific CTL activity; also recorded: potent CTL activities | a significant specific CTL activity was not shown; also recorded: a significant specific CTL activity was not detected | Potent IFN-gamma production | potent IFN-gamma production | – | – | – | – | – | – |
| HFYACQVAQR (a peptide derived from KOC1) [SEQ ID NO: 77] | potent IFN-gamma production | – | – | – | potent IFN-gamma production | specific CTL activity; also recorded: potent CTL activities | a significant specific CTL activity was not shown; also recorded: a significant specific CTL activity was not detected | Potent IFN-gamma production | – | – | – |
| NFVGRLIGK (a peptide derived from KOC1) [SEQ ID NO: 67] | potent IFN-gamma production | – | – | – | potent IFN-gamma production | – | – | – | specific CTL activity; also recorded: potent CTL activities | a significant specific CTL activity was not shown; also recorded: a significant specific CTL activity was not detected | Potent IFN-gamma production |
